Test results from US20140239906A1, “REDOX-ACTIVE LIGAND-BASED TRANSITION METAL COMPLEX FLOW BATTERIES” (Sandia Corporation, priority 2013, published 2014).

How the values were obtained:
[1] = Cyclic voltammetry (redox potentials); type: physicochemical; details: 20 mM in CH3CN with 0.1 M [TBA][PF6], 250 mV/s, room temperature; mid-point of anodic and cathodic peak potentials
Text: Ferrocene was used as an internal standard.
CV of 1b, shown in FIG. 7, is similar to that reported previously for [V(mnt)3]^2− with various cations. Three reversible waves corresponding to the 4^−/3^−, 3^−/2^− and 2^−/1^− redox couples are observed at −1.41 V, −0.227 V and 0.856 V vs. SHE, respectively. Redox potential values reported herein correspond to the mid-point between the anodic and cathodic peak potentials of a cyclic voltammogram. […] Thus, a battery cell constructed using 1 as both anolyte and catholyte has a theoretical cell potential of […] and a theoretical energy density of 13 W·h·L^−1. However, bulk reduction of [V(mnt)3]^2− to [V(mnt)3]^3− in the anodic half-cell before charging would result in a theoretical cell potential and energy density of 2.3V and 28 W·h·L^−1, respectively. These values compare favorably to previously reported non-aqueous RFB electrolytes. A RFB based on [V(mnt)3]^2− solutions would also benefit from having the same chemical species in both half-cells, a strategy that has been employed previously to prevent irreversible self-discharge from crossover of active redox species through the membrane. This feature then also enables the use of inexpensive, microporous separators that are not ion-selective.

[2] = Static cell (H-cell) galvanostatic charge-discharge cycling; details: 20 mM in acetonitrile, 0.1 M [TBA][PF6]; through cycle 16
Method: Cyclic voltammetry (CV) was carried out using a Bio-Logic SP-200 potentiostat, a glassy carbon working electrode, a Pt wire counter electrode and a silver-wire pseudo reference electrode. Ferrocene was used as an internal standard. For static cell battery testing, an H-cell was used containing 20 mM anolyte/catholyte and 100 mM [NBu4][PF6] supporting electrolyte. Charge and discharge currents were 1 mA and 0.1 mA, respectively. Graphite electrodes (POCO) having a 2 cm^2 active area and a Tonen V25EKD separator were used.
A two-compartment cell with non-flowing solutions (i.e., “static cell”) was assembled to assess the charge-discharge characteristics of [V(mnt)3]^2− in a non-aqueous environment. Both compartments contained a 20 mM solution of 1b in acetonitrile with 0.1 M tetrabutylammonium hexafluorophosphate as supporting electrolyte. Two graphite electrodes (POCO) with 2 cm^2 active areas and a V25EKD separator (Tonen) were used. Because the discharged cathode and anode complexes are both in the 2^− oxidation state, it is presumed that the cathode complex converts to the 1^− state and the anode complex converts to the 3^− state during charge.

[3] = Solubility in acetonitrile by UV-vis spectroscopy; type: physicochemical; details: absorbance at 568 nm, Beers law
Method: Solutions were prepared by mixing roughly equal volumes of metal complex and solvent. The resulting black solution was concentrated with a stream of N2 until a slight crust began to form, which was re-dissolved with warming and agitation. The sample was then centrifuged at 8000 RPM for two hours and allowed to stand overnight. Concentrations were determined using absorbance at 568 nm, ε568=4540 M^−1cm^−1.

[4] = Stability under air (solid and acetonitrile solution), CV and UV-vis; type: physicochemical
Text: Long-term stability is a key consideration in the development of RFB systems and recent research has included extensive investigations of state-of-the-art aqueous RFB systems. Factors affecting stability and the decay of capacity including membrane chemistry, thermal effects, gas evolution and electrode corrosion have been identified and this remains an active research area. In comparison, the long-term stability of non-aqueous RFBs remains to be investigated. […] To investigate its stability in solution, a 1 mM acetonitrile solution was analyzed, stored for a period of one week under air atmosphere, and subsequently analyzed. […] Long-term studies to investigate the stability of the membrane, electrode and electrolytes have been initiated.

Structure (SMILES) | redox potential 2−/1− couple [1] [V vs. SHE] | redox potential 3−/2− couple [1] [V vs. SHE] | redox potential 4−/3− couple [1] [V vs. SHE] | electrochemical yield (faradaic efficiency) of charge cycles, stabilized [2] | maximum solubility [3] [mM] | stability in solution (CV and UV-vis spectroscopy) ([4]; 1 mM acetonitrile solution, one week under air atmosphere) | stability as prepared to ambient oxygen and moisture ([4]; as prepared, stored under air)
CC[N+](CC)(CC)CC.CC[N+](CC)(CC)CC.N#CC([S-])=C([S-])C#N.N#CC([S-])=C([S-])C#N.N#CC([S-])=C([S-])C#N.[V+4] [1b] | 0.856 | −0.227 | −1.41 | 20-25% | ~900 |  | 
C[N+](C)(C)C.C[N+](C)(C)C.N#CC([S-])=C([S-])C#N.N#CC([S-])=C([S-])C#N.N#CC([S-])=C([S-])C#N.[V+4] [1a] |  |  |  |  |  | unchanged | no decomposition was observed
